The source made the active and inactive calls. No cut-off for these calls is given here.
Key:
[1] = tested on: Escherichia coli; assay: Inhibition of Escherichia coli DNA methyltransferase assessed as fluorescence quenching measured
[2] = tested on: Escherichia coli; assay: Activation of Escherichia coli DNA methyltransferase upto 20 uM
[3] = tested on: Haemophilus haemolyticus; assay: Activation of M.HhaI DNA methyltransferase upto 16 uM
[4] = molecular target: T1, DNA adenine methylase (Escherichia coli K-12) (UniProt P0AEE8); assay: Inhibition of Escherichia coli DNA adenine methyltransferase at 15 uM after 30 mins
T1 sequence (whole entry): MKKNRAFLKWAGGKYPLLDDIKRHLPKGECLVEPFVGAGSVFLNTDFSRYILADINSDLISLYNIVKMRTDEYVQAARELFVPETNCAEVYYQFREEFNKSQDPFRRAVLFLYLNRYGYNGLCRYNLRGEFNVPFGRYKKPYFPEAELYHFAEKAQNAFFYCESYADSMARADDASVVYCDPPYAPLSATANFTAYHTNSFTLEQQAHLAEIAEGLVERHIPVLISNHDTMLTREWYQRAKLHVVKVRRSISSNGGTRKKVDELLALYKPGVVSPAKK

[5] = tested on: ER1727; assay: Inhibition of M.HhaI DNA methyltransferase expressed in ER1727 cells at 15 uM after 30 mins; type: cell-based; conditions: Haemophilus haemolyticus
[6] = tested on: Escherichia coli; assay: Inhibition of Escherichia coli DNA methyltransferase at 15 uM after 30 mins
[7] = Inhibition of Escherichia coli DNA methyltransferase measured by secondary plot
[8] = Inhibition of Escherichia coli DNA methyltransferase measured by dixon plot
[9] = tested on: Escherichia coli; assay: Inhibition of Escherichia coli DNA methyltransferase after 30 mins
[10] = tested on: ER1727; assay: Inhibition of M.HhaI DNA methyltransferase expressed in ER1727 cells after 30 mins; type: cell-based; conditions: Haemophilus haemolyticus

Row | Activity [6] | SMILES | Activity [5] | further results
1 | – | Nc1cccc2c1ncn2[C@@H]1O[C@H](CSCCC(=O)O)[C@@H](O)[C@H]1O | – | Activity [1]: 5.66 µM; Activity [2]: Active; Activity [3]: Active; Activity [4]: Active
2 | inactive | CCOC(=O)CCSC[C@H]1O[C@@H](n2cnc3c(N)ncnc32)[C@H](O)[C@@H]1O | inactive | Activity [1]: inactive
3 | inactive | Nc1ncnc2c1ncn2[C@@H]1O[C@H](CCl)[C@@H](O)[C@H]1O | inactive | –
4 | inactive | NC(=O)CCSC[C@H]1O[C@@H](n2cnc3c(N)ncnc32)[C@H](O)[C@@H]1O | inactive | –
5 | – | Nc1ncnc2c1ncn2[C@@H]1O[C@H](CSCCC(=O)O)[C@@H](O)[C@H]1O | – | Activity [1]: 22 µM; Ki [7]: 5 µM; IC50 [8]: 5 µM; Activity [9]: Dose-dependent effect; Activity [10]: Dose-dependent effect; Activity [4]: Active
6 | Active | Nc1ncnc2c1ncn2[C@@H]1O[C@H](CSCC[C@H](N)C(=O)O)[C@@H](O)[C@H]1O | Active | –
7 | inactive | CSC[C@H]1O[C@@H](n2cnc3c(N)ncnc32)[C@H](O)[C@@H]1O | inactive | –
8 | inactive | C=CCSC[C@H]1O[C@@H](n2cnc3c([N+](=O)[O-])cccc32)[C@H](O)[C@@H]1O | inactive | –
9 | inactive | O=[N+]([O-])c1cccc2c1ncn2[C@@H]1O[C@H](CO)[C@@H](O)[C@H]1O | inactive | –

Row | SMILES | Activity [6] | Activity [5] | further results
10 | CC#CSC[C@H]1O[C@@H](n2cnc3c(N)ncnc32)[C@H](O)[C@@H]1O | inactive | inactive | –
11 | C=C=CSC[C@H]1O[C@@H](n2cnc3c(N)ncnc32)[C@H](O)[C@@H]1O | inactive | inactive | –
12 | C#CCSC[C@H]1O[C@@H](n2cnc3c(N)ncnc32)[C@H](O)[C@@H]1O | inactive | inactive | –
